Source: ChEMBL document CHEMBL1909046, “DrugMatrix in vitro pharmacology data”

Legend:
[1] = biological target: T1, Angiotensin-converting enzyme (Oryctolagus cuniculus, UniProt P12822); assay type: tissue-based, Lung;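 also: enzymatic inhibition of angiotensin-converting enzyme measured with FAPGG as the substrate; in other assays of this panel Not Active means under 50% inhibition at 10 µM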
T1 sequence (P12822 whole entry): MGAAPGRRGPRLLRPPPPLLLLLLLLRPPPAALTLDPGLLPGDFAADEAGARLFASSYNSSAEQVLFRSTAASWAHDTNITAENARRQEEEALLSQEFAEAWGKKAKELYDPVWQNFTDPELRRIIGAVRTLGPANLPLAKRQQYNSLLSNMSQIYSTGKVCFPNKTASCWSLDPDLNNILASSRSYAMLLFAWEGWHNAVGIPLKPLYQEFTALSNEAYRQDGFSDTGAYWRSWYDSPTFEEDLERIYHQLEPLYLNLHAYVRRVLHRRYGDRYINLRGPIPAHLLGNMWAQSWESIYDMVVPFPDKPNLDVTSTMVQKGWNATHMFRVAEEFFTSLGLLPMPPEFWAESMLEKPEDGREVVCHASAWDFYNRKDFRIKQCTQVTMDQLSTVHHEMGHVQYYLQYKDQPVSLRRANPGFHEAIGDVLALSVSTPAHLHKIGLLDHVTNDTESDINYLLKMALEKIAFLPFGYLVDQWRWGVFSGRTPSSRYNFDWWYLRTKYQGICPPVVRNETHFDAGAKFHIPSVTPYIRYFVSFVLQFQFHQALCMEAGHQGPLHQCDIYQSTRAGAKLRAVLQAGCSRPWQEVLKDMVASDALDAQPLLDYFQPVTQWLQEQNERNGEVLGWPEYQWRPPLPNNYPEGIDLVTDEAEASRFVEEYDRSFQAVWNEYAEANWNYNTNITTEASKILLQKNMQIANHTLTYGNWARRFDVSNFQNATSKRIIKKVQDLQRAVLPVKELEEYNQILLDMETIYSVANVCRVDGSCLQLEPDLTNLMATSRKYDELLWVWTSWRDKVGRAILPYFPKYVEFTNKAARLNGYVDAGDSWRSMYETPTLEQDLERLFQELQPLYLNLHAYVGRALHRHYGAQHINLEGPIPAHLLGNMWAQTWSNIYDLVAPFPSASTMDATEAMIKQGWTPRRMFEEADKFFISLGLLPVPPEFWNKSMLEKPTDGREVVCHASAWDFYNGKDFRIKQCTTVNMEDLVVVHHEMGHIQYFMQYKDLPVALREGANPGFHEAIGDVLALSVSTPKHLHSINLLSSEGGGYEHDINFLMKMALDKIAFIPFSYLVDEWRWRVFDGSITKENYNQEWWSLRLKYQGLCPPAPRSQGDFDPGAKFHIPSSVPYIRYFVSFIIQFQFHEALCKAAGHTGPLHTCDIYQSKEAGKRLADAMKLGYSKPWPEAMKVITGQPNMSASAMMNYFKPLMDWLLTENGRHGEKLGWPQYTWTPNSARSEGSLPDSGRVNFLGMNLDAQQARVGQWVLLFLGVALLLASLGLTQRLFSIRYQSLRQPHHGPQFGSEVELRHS

[2] = DRUGMATRIX: Leukotriene, BLT (LTB4) radioligand binding (ligand: [3H]LTB4); assay type: cell membranes, Membrane; conditions: u-937; Not Active = under 50% inhibition at 10 µM
[3] = DRUGMATRIX: ATPase, Na+/K+ enzyme inhibition (substrate: ATP); assay type: tissue-based, Sus scrofa, Heart; conditions: Not Active = under 50% inhibition at 10 µM
[4] = biological target: Mitogen-activated protein kinase 1 (Homo sapiens, UniProt P28482); test: DRUGMATRIX: Protein Serine/Threonine Kinase, ERK2 enzyme inhibition (substrate: Myelin Basic Protein); parameters: species or system Escherichia coli; conditions: Not Active = under 50% inhibition at 10 µM
[5] = DRUGMATRIX: Sodium/nucleoside co-transporter radioligand binding (ligand: nitrobenzylthioinosine); assay type: cell membranes, Cavia porcellus, Dunkin-Hartley, Cerebral cortex, Membrane; conditions: Not Active = under 50% inhibition at 10 µM
[6] = biological target: T2, Type-2 angiotensin II receptor (Homo sapiens, UniProt P50052); test: biochemical; assay type: cell-based, CHO-K1; conditions: cho-k1; also: in other assays of this panel Not Active means under 50% inhibition at 10 µM
T2 sequence (P50052 whole entry): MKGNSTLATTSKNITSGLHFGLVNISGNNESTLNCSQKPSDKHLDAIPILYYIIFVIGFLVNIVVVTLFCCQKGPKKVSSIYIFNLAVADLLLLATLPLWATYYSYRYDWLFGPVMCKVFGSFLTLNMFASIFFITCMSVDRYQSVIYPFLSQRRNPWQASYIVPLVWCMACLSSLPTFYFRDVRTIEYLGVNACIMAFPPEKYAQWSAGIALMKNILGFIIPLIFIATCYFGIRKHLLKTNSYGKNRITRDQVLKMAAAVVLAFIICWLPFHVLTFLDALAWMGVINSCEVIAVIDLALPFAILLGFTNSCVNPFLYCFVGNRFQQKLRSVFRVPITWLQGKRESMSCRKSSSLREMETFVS

[7] = biological target: Mitogen-activated protein kinase 3 (Homo sapiens, UniProt P27361); test: DRUGMATRIX: Protein Serine/Threonine Kinase, ERK1 enzyme inhibition (substrate: Myelin Basic Protein); parameters: species or system Escherichia coli; conditions: Not Active = under 50% inhibition at 10 µM
Mitogen-activated protein kinase 3, sequence (P27361 whole entry): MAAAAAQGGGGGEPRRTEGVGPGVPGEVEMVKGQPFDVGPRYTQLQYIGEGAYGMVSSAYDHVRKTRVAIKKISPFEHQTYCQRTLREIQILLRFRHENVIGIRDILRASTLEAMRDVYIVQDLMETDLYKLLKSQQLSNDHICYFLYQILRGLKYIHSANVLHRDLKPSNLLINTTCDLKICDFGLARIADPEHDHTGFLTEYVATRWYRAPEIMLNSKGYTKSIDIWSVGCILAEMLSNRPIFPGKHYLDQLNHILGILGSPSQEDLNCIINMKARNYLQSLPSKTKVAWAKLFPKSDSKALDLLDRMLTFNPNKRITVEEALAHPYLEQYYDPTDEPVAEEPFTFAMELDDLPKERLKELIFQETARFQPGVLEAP

Mitogen-activated protein kinase 1, sequence (P28482 whole entry): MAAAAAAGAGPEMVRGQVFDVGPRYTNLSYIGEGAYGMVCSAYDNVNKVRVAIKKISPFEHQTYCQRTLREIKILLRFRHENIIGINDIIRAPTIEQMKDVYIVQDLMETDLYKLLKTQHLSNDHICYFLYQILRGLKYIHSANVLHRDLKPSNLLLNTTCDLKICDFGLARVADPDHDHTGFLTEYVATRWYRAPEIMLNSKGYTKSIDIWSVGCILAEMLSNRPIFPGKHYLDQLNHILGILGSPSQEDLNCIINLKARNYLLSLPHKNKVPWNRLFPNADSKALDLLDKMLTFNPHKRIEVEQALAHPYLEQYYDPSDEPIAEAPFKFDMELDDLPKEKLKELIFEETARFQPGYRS

COc1cccc2c1C(=O)c1c(O)c3c(c(O)c1C2=O)C[C@@](O)(C(C)=O)C[C@@H]3O[C@H]1C[C@H](N)[C@H](O)[C@H](C)O1 [DAUNORUBICIN]
Not Active: IC50 [1] | IC50 [2] | Ki [2] | IC50 [3] | Ki [3] | IC50 [4] | IC50 [5] | Ki [5] | IC50 [6] | IC50 [7]

O=C(O)c1cc(-c2ccc(F)cc2F)ccc1O [DIFLUNISAL]
Not Active: IC50 [1] | IC50 [2] | Ki [2] | IC50 [3] | Ki [3] | IC50 [4] | IC50 [5] | Ki [5] | IC50 [6] | IC50 [7]

C[S+](C)[O-] [DIMETHYL SULFOXIDE]
Not Active: IC50 [1] | IC50 [2] | Ki [2] | IC50 [3] | Ki [3] | IC50 [4] | IC50 [5] | Ki [5] | IC50 [6] | IC50 [7]

CC1=NN(c2ccccc2)C(=O)C1 [EDARAVONE]
Not Active: IC50 [1] | IC50 [2] | Ki [2] | IC50 [3] | Ki [3] | IC50 [4] | IC50 [5] | Ki [5] | IC50 [6] | IC50 [7]

CC(C)C[C@H]1C(=O)N2CCC[C@H]2[C@]2(O)O[C@](NC(=O)[C@@H]3C=C4c5cccc6[nH]cc(c56)C[C@H]4N(C)C3)(C(C)C)C(=O)N12 [ERGOCRYPTINE]
Not Active: IC50 [1] | IC50 [2] | Ki [2] | IC50 [3] | Ki [3] | IC50 [4] | IC50 [5] | Ki [5] | IC50 [6] | IC50 [7]

C[C@]12CC[C@@H]3c4ccc(O)cc4CC[C@H]3[C@@H]1C[C@@H](O)[C@@H]2O [ESTRIOL]
Not Active: IC50 [1] | IC50 [2] | Ki [2] | IC50 [3] | Ki [3] | IC50 [4] | IC50 [5] | Ki [5] | IC50 [6] | IC50 [7]

C#C[C@]1(O)CC[C@H]2[C@@H]3CCC4=CC(=O)CC[C@]4(C)[C@H]3CC[C@@]21C [ETHISTERONE]
Not Active: IC50 [1] | IC50 [2] | Ki [2] | IC50 [3] | Ki [3] | IC50 [4] | IC50 [5] | Ki [5] | IC50 [6] | IC50 [7]

CC(O)(P(=O)(O)O)P(=O)(O)O [ETIDRONIC ACID]
Not Active: IC50 [1] | IC50 [2] | Ki [2] | IC50 [3] | Ki [3] | IC50 [4] | IC50 [5] | Ki [5] | IC50 [6] | IC50 [7]
